Laboratory results: patent US8367340B2, “Prognostic tools to predict the efficacy of drug treatment targeting chromatin DNA or enzymes acting on DNA” (University of Maryland, Baltimore, priority 2008, dated 2013)

Test system: c-myc P2 promoter
Experiment: PCR-Stop assay with real time PCR on genomic DNA of drug-treated RKO colon cancer cells
Type: cell-based, human
Details: 10 ng/ml TSA 4 h followed by 25 μM VP16 1 h, compared to the reverse combination and the single drug treatments
From the text: Top2 inhibitors induce preferential damage within the c-myc locus and more particularly within the P2 promoter of c-myc. […] By way of non-limiting example, the 3′ end region may be amplified using the following primers of the human c-myc gene: Forward: 5′[…]3′ [SEQ ID NO: 1], Reverse: 5′[…]3′ [SEQ ID NO:2]. Other suitable primers may be used, as would be apparent to those skilled in the art.
According to example embodiments, a comparative threshold (Ct) method may be used to quantify the results obtained by the real-time RT-PCR. The comparative Ct method involves comparing the Ct values of the samples of interest with a control or calibrator such as a non-treated sample from normal tissue. The Ct values of both the calibrator and the samples of interest are normalized to an appropriate endogenous housekeeping gene. Non-limiting example quantification methods include identifying the cycle number at which the reporter dye emission intensities rises above background noise: this cycle number is called the threshold number (Ct). The Ct is proportional to the breaks introduced in the target template; the higher the amount of breakage in the given target template, the higher the Ct measured.
By way of non-limiting example, the 3′ region of c-myc gene that has no type II topoisomerase cleavage site may be used as a reference. […]

In the case of `COc1cc([C@@H]2c3cc4c(cc3[C@@H](O[C@@H]3O[C@@H]5CO[C@@H](C)O[C@H]5[C@H](O)[C@H]3O)[C@H]3COC(=O)[C@H]23)OCO4)cc(OC)c1O` [VP16, etoposide], the “percentage of breaks at c-myc locus (type II topoisomerase mediated DNA breaks in c-myc P2 promoter)” value is reported as “considerably higher percentage of breaks”.
